Laboratory results published in ChEMBL document CHEMBL1201862, “PubChem BioAssay data set” (2004).
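The compound was tested at five concentrations on cells cultured in 96-well plates, with a 48-hour exposure period. The concentration for 50% growth inhibition is given as GI50.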 The source made the active and inactive calls. No stated cut-off is given here; in the data, active = GI50 up to about 1.1 µM and inactive = higher.

Columns and labels:
Assay in all cases: NCI anticancer screen, dose series, 48 h
A549 = system: A549
OVCAR-5 = system: OVCAR-5
U-251 = system: U-251
KM-20L2 = system: KM-20L2
OVCAR-4 = system: OVCAR-4
Malme-3M = system: Malme-3M
OVCAR-8 = system: OVCAR-8
NCI-H226 = system: NCI-H226
SF-539 = system: SF-539
DLD-1 = system: DLD-1
SK-MEL-28 = system: SK-MEL-28
TK-10 = system: TK-10
M19-MEL = system: M19-MEL
HOP-92 = system: HOP-92
SK-MEL-5 = system: SK-MEL-5
SN12C = system: SN12C
UACC-257 = system: UACC-257
ACHN = system: ACHN
MOLT-4 = system: MOLT-4
HCT-15 = system: HCT-15
SF-268 = system: SF-268
SNB-78 = system: SNB-78
HT-29 = system: HT-29
RXF 393 = system: RXF 393
EKVX = system: EKVX
LOX IMVI = system: LOX IMVI
IGROV-1 = system: IGROV-1
RPMI-8226 = system: RPMI-8226
786-0 = system: 786-0
K562 = system: K562
M14 = system: M14
SNB-19 = system: SNB-19
SW-620 = system: SW-620
NCI-H460 = system: NCI-H460
UACC-62 = system: UACC-62
DMS-114 = system: DMS-114
NCI-H23 = system: NCI-H23
CAKI-1 = system: CAKI-1
HOP-62 = system: HOP-62
SNB-75 = system: SNB-75
KM12 = system: KM12
XF498 = system: XF498
SK-MEL-2 = system: SK-MEL-2
A498 = system: A498
HCC 2998 = system: HCC 2998
UO-31 = system: UO-31
DMS-273 = system: DMS-273
HCT-116 = system: HCT-116
HL-60 = system: HL-60
HOP-18 = system: HOP-18
OVCAR-3 = system: OVCAR-3
SF-295 = system: SF-295
LXFL 529 = system: LXFL 529
SK-OV-3 = system: SK-OV-3
COLO 205 = system: COLO 205
NCI-H522 = system: NCI-H522
CCRF-CEM = system: CCRF-CEM

In the case of `CCCc1nc(N)nc(C(=O)Nc2cccc(C(F)(F)F)c2)c1CC`, the GI50 (A549) is reported as > 100 µM (inactive), the GI50 (OVCAR-5) is reported as > 100 µM (inactive) and the GI50 (U-251) is reported as > 100 µM (inactive). For the same molecule, the GI50 (KM-20L2) was > 100 µM (inactive), the GI50 (OVCAR-4) was > 100 µM (inactive) and the GI50 (Malme-3M) was > 100 µM (inactive). The GI50 (OVCAR-8) was > 100 µM (inactive), the GI50 (NCI-H226) was > 100 µM (inactive) and the GI50 (SF-539) was > 100 µM (inactive). The GI50 (DLD-1) was > 100 µM (inactive), the GI50 (SK-MEL-28) was > 100 µM (inactive) and the GI50 (TK-10) was > 100 µM (inactive). For the same molecule, the GI50 (M19-MEL) was > 100 µM (inactive), the GI50 (HOP-92) was > 100 µM (inactive) and the GI50 (SK-MEL-5) was > 100 µM (inactive). The GI50 (SN12C) was > 100 µM (inactive), the GI50 (UACC-257) was > 100 µM (inactive) and the GI50 (ACHN) was > 100 µM (inactive). The GI50 (MOLT-4) was > 100 µM (inactive), the GI50 (HCT-15) was greater than 100 µM and the GI50 (SF-268) was > 100 µM (inactive). For the same molecule, the GI50 (SNB-78) was > 100 µM (inactive), the GI50 (HT-29) was > 100 µM (inactive) and the GI50 (RXF 393) was > 100 µM (inactive). For the same molecule, the GI50 (EKVX) was > 100 µM (inactive), the GI50 (LOX IMVI) was > 100 µM (inactive) and the GI50 (IGROV-1) was > 100 µM (inactive). For the same molecule, the GI50 (RPMI-8226) was 76.6 µM (inactive), the GI50 (786-0) was > 100 µM (inactive) and the GI50 (K562) was > 100 µM (inactive). For the same molecule, the GI50 (M14) was > 100 µM (inactive), the GI50 (SNB-19) was > 100 µM (inactive) and the GI50 (SW-620) was > 100 µM (inactive). The GI50 (NCI-H460) was > 100 µM (inactive), the GI50 (UACC-62) was > 100 µM (inactive) and the GI50 (DMS-114) was > 100 µM (inactive). The GI50 (NCI-H23) was > 100 µM (inactive), the GI50 (CAKI-1) was > 100 µM (inactive) and the GI50 (HOP-62) was > 100 µM (inactive). For the same molecule, the GI50 (SNB-75) was > 100 µM (inactive), the GI50 (KM12) was > 100 µM (inactive) and the GI50 (XF498) was > 100 µM (inactive). For the same molecule, the GI50 (SK-MEL-2) was > 100 µM (inactive), the GI50 (A498) was > 100 µM (inactive) and the GI50 (HCC 2998) was > 100 µM (inactive). For the same molecule, the GI50 (UO-31) was > 100 µM (inactive), the GI50 (DMS-273) was > 100 µM (inactive) and the GI50 (HCT-116) was > 100 µM (inactive). For the same molecule, the GI50 (HL-60) was > 100 µM (inactive), the GI50 (HOP-18) was > 100 µM (inactive) and the GI50 (OVCAR-3) was > 100 µM (inactive). The GI50 (SF-295) was > 100 µM (inactive).

In the case of `O=C(O)CCC1(Br)CCCCC(Br)C1=O` (configuration not stated), the GI50 (A549) is reported as > 100 µM (inactive), the GI50 (OVCAR-5) is reported as > 100 µM (inactive) and the GI50 (U-251) is reported as > 100 µM (inactive). The GI50 (KM-20L2) was > 100 µM (inactive), the GI50 (OVCAR-4) was > 100 µM (inactive) and the GI50 (LXFL 529) was > 100 µM (inactive). For the same molecule, the GI50 (Malme-3M) was > 100 µM (inactive), the GI50 (OVCAR-8) was > 100 µM (inactive) and the GI50 (NCI-H226) was > 100 µM (inactive). For the same molecule, the GI50 (SF-539) was > 100 µM (inactive), the GI50 (SK-MEL-28) was > 100 µM (inactive) and the GI50 (TK-10) was > 100 µM (inactive). For the same molecule, the GI50 (M19-MEL) was > 100 µM (inactive), the GI50 (HOP-92) was 32.7 µM (inactive) and the GI50 (SK-MEL-5) was > 100 µM (inactive). For the same molecule, the GI50 (SN12C) was > 100 µM (inactive), the GI50 (UACC-257) was > 100 µM (inactive) and the GI50 (ACHN) was > 100 µM (inactive). For the same molecule, the GI50 (MOLT-4) was > 100 µM (inactive), the GI50 (HCT-15) was greater than 100 µM and the GI50 (SF-268) was > 100 µM (inactive). For the same molecule, the GI50 (SNB-78) was > 100 µM (inactive), the GI50 (HT-29) was > 100 µM (inactive) and the GI50 (RXF 393) was 85.9 µM (inactive). For the same molecule, the GI50 (SK-OV-3) was > 100 µM (inactive), the GI50 (EKVX) was > 100 µM (inactive) and the GI50 (COLO 205) was > 100 µM (inactive). The GI50 (IGROV-1) was > 100 µM (inactive), the GI50 (RPMI-8226) was > 100 µM (inactive) and the GI50 (NCI-H522) was > 100 µM (inactive). For the same molecule, the GI50 (786-0) was > 100 µM (inactive), the GI50 (K562) was > 100 µM (inactive) and the GI50 (M14) was > 100 µM (inactive). For the same molecule, the GI50 (SNB-19) was > 100 µM (inactive), the GI50 (SW-620) was > 100 µM (inactive) and the GI50 (NCI-H460) was > 100 µM (inactive). For the same molecule, the GI50 (UACC-62) was > 100 µM (inactive), the GI50 (DMS-114) was > 100 µM (inactive) and the GI50 (NCI-H23) was > 100 µM (inactive). For the same molecule, the GI50 (CAKI-1) was > 100 µM (inactive), the GI50 (HOP-62) was > 100 µM (inactive) and the GI50 (SNB-75) was 35.9 µM (inactive). The GI50 (KM12) was > 10 µM (inactive), the GI50 (XF498) was > 100 µM (inactive) and the GI50 (SK-MEL-2) was 77.4 µM (inactive). For the same molecule, the GI50 (A498) was > 100 µM (inactive), the GI50 (HCC 2998) was > 100 µM (inactive) and the GI50 (UO-31) was > 10 µM (inactive). The GI50 (DMS-273) was > 100 µM (inactive), the GI50 (HCT-116) was > 100 µM (inactive) and the GI50 (HL-60) was > 100 µM (inactive). For the same molecule, the GI50 (HOP-18) was 32.8 µM (inactive), the GI50 (OVCAR-3) was > 100 µM (inactive) and the GI50 (CCRF-CEM) was 95.3 µM (inactive). The GI50 (SF-295) was > 100 µM (inactive).
